We go through one substance from publication PMC11904948, “Peptide‐Drug Conjugate for Therapeutic Reprogramming of Tumor‐Associated Macrophages in Breast Cancer” (Advanced Science, 2025).

Series [1] deals with mouse bone marrow‐derived macrophages (BMDM). Kind of series: Phagocytosis of fluorescent E. coli particles by BMDM. Format: cell-based. The note with it: 10 µM 4 h, washed, 48 h follow-up, versus MACTIDE treated and untreated BMDM. On the procedure:
We then analyzed if MACTIDE‐V affected the phagocytic activity of BMDM in vitro.
For the E. coli phagocytosis assay, cells were cultured in a 96‐well plate and treated with conjugates as previously described (for 4 h at a 10 µM concentration at 37 °C, then peptide conjugates were removed, washed with media and fresh media was added). The phagocytosis assay was performed at 48 h after treatment removal by removing the media, incubating fluorescent E. coli BioParticles for 2 h, followed by a 1 min incubation with trypan blue (Vybrant Phagocytosis Assay Kit, Invitrogen, Cat# V6694). Plates were read at 480 nm excitation and 520 nm emission using a BioTek Synergy H1 plate reader.

The next series deals with orthotopic 4T1 tumors. Kind of series: In vivo photodynamic therapy study in orthotopic 4T1. The arrangement: species or system Balb/c mice. The procedure:
Figure 5 In vitro and in vivo photodynamic therapy with MACTIDE‐V. A) Structure of MACTIDE‐V. B) MACTIDE‐V, CtrlPep‐V, and DOX were incubated with primary human macrophages (obtained from monocytes derived from human blood buffy coat) at 30 µM for 1 h at 37 °C, followed by 2 washes with media. Then, the groups shown in pink were irradiated with 10 J cm^−2 (irradiance: 170 mW cm^−2, spot diameter: 0.5 cm). […] For the irradiated groups, 4 h after administration of conjugates or PBS, the mice were irradiated with 100 J cm^−2; shown is primary tumor volume progression during treatment. Gray arrows indicate injection days. D) Bodyweight during the treatment as % of the initial one. E) Representative mIHC images of PBS, CtrlPep‐V, and MACTIDE‐V‐treated tumors, 20X magnification, scale bar = 100 µm, white triangles point to Foxp3^+ cells. F) CD8^+ T cells, CD4^+ T cells, and Treg density, n = 6 mice/group, with every dot representing the mean cell density of each tumor obtained from 20 images. G) CD8^+ T cells density in CK8^+‐dense tumor regions. n = 5 mice/group, with every dot representing the mean cell density of each tumor obtained from 20 images. Median ± interquartile range. One‐way ANOVA with multiple comparisons, ^* p ≤ 0.05, ^** p ≤ 0.01.
Prompted by the consistent laser‐induced and preferential toxicity of MACTIDE‐V on IL‐4‐stimulated macrophages, we decided to evaluate its in vivo therapeutic effect on mice survival in the orthotopic 4T1 model. […] This prompted us to further investigate the effect of MACTIDE‐V (‐), which hereafter will be denoted simply as “MACTIDE‐V”. To obtain further information on the effect of MACTIDE‐V in this tumor model, we investigated T cell infiltration in treated tumors, using multiplex immunohistochemistry (mIHC), comparing MACTIDE‐V (‐) group to PBS and CtrlPep‐V (‐) groups.
Orthotopic tumors were induced by injecting 5×10^4 4T1 cells in 50 µL of PBS subcutaneously into the 4th mammary fat pad of 8–12‐week‐old female Balb/c mice. When tumors reached ≈40 mm^3, mice were sorted into groups: MACTIDE‐V (+), MACTIDE‐V (‐), CtrlPep‐V (+), CtrlPep‐V (‐), MACTIDE (‐), and PBS (+). Tumors were measured using a digital caliper (Mitutoyo) and volume was calculated using (W^2 × L)/2 formula, where W is the width of a tumor and L is the length. Each group had six mice. The first intraperitoneal injection (30 nmol) was carried out on day 9 post‐tumor induction. 4 h post‐injection, the tumor area was shaved to lessen laser scattering and tumors were irradiated with 100 J cm^−2 using the NIR laser source for PDT described above. Each tumor was measured, and the spot size was adjusted every time, keeping the radiation dose always constant. Irradiation of the tumors was done in complete darkness under anesthesia. Mice recovered on a heating pad and eye drops were applied to avoid eye dryness. All mice, whether irradiated or not, were anesthetized to keep the handling conditions the same. Mouse bodyweights and tumor volumes were monitored every other day. The sacrifice of mice began on day 23 based on their tumor sizes (over 1500 mm^3) or cachexia. The final mice were sacrificed on day 36 post‐tumor induction. Tumor volume curves are shown until day 23 when mice elimination began, and the sample number became too small for statistical comparison. Survival was analyzed using GraphPad Prism to plot Kaplan–Meier survival curves and perform the Mantel–Cox test for statistical analysis. Tumors taken on similar days were analyzed using mIHC.
The staining of 4 µm‐thick formalin‐fixed paraffin‐embedded (FFPE) tissue sections for mIHC analysis was carried out using the tyramide signal amplification‐based Opal method (Akoya Biosciences) on a Leica BOND RX automated immunostainer (Leica Microsystems). For each staining cycle, FFPE slides were deparaffinized and subjected to heat‐induced epitope retrieval at 97 or 100 °C using BOND epitope retrieval solutions ER1 or ER2 (Leica Biosystems).

[2] abbreviates: non-irradiated, versus PBS and CtrlPep‐V (‐), n = 6 mice/group.

Take “Vert‐Ahx‐G(CTKSIPPIC)SPGAK‐OH (disulfide) [MACTIDE‐V]”: the “phagocytosis of fluorescently labeled E. coli” value in series [1] is “significantly higher phagocytosis”. Moreover, the mice survival entry in the series on orthotopic 4T1 tumors (Kaplan–Meier, Mantel–Cox test) is on record as “no significant differences”. Further, in the series on orthotopic 4T1 tumors (i.p. 30 nmol (1 mg Kg^−1 in Verteporfin), no laser, n = 6/group, significant respect to PBS), the “primary tumor volume, non‐irradiated (‐)” value is listed as “strongest tumor volume reduction”. Further, the “primary tumor growth, irradiated (+)” value in the series on orthotopic 4T1 tumors (i.p. 30 nmol, irradiated 100 J cm^−2 4 h after administration, n = 6/group, versus control groups, not statistically significant) is “slowed down the tumor growth”. Besides, the “body weight, non‐irradiated (‐)” value in the series with orthotopic 4T1 tumors (i.p. 30 nmol, no laser, % of initial bodyweight) is on record as “negligible effect on body weight”. Moreover, the “CD8^+ T cell density in CK8^+‐dense tumor regions (mIHC)” value in the series on orthotopic 4T1 tumors (non-irradiated, n = 5 mice/group) is given as “higher CD8^+ T cell density”. In the series on orthotopic 4T1 tumors (setting [2]), the “CD8^+ T cell infiltration in tumors (mIHC)” value is “significantly higher infiltration of CD8^+ T cells” and the “density of regulatory T cells (Tregs) in tumors (mIHC)” value is listed as “no differences in the density of regulatory T cells”.
